Test results published in patent US7667052B2 (Eisai R&D Management Co., Ltd., priority 2003, dated 2010).
Read-outs that look alike come from different tables or passages of the source.

Test system: transcription from VEGF promoter
Assay: VEGF transcription-suppressing activity, VEGF-PLAP reporter in U251/1-8 cell
Type: cell-based
Conditions: Homo sapiens, U-251, U251/1-8 cell, PLAP activity, low oxygen 18 hours
Excerpt: In order to prepare reporter system reflecting transcription from VEGF promoter, VEGF promoter sequence was cloned, and inserted in secretory alkali phosphatase (PLAP) vector to construct reporter vector.
In order to obtain the promoter region of human VEGF, VEGF genome was cloned from phage library. PCR primers having the sequences described in Sequence Numbers 1 and 2 were designed based on VEGF cDNA (GenBank accession number: X62568) and a fragment having about 340 bp was obtained by carrying out PCR. Human genome phage library (Human genomic library, Clontech Co.) was screened using this as a probe to obtain pUC18-VEGFA containing about 5.4 kb of VEGF 5′ flanking region. The pUC18-VEGFA was cleaved by KpnI/NheI, VEGF promoter region of about 2.3 kb obtained was inserted in the multi cloning site KpnI/NheI of secretory alkali phosphatase (PLAP) vector (Goto et al, Mol. Pharmacol., 49, 860-873, 1996), and thus, VEGF-PLAP vector was constructed.
The above-mentioned VEGF-PLAP vector was introduced in the U251 cell cultured in the DULBECCO-modified eagle medium (DMEM; manufactured by SIGMA Co., Ltd.) containing 10% fetal calf serum, and cultured in the presence of 1 mg/ml G418 (Merck Co.) to establish G418 resistant stable clone (U251/1-8 cell).
It was confirmed that U251/1-8 cell secreted PLAP under low oxygen (2% O2 incubator) in the same manner as in the report (Cell. Mol. Biol. Res. 40, 35-39, 1994) and was a reporter system reflecting the transcription from VEGF promoter. The screening of the compound suppressing VEGF production which was induced by low oxygen stimulation was carried out below using the clone.
In order to remove the influence of alkaline phosphates in serum, U251/1-8 cell was rinsed twice with the adequate amount of PBS (Phosphate buffered saline), diluted in the DMEM medium containing 10% of serum in which alkaline phosphates was inactivated by the treatment of 60° C. for 20 min., and dispensed in 96-well plates by 4×10^4 cells/180 μl.
After culturing at 37° C. overnight in a CO2 incubator (5% CO2), 20 μL of the above-mentioned incubation solution containing the test compound diluted with 3-fold succession was added, and then they were incubated in a low oxygen ([…]) incubator for 18 hours. With respect to the PLAP activity in the culture supernatants, 10 μl of the supernatants was added to 50 μl of 0.28 M Na2CO3—NaHCO3 buffer solution (pH 10.0, 8.0 mM MgSO4), and finally 50 μl of alkaline phosphatase substrate (LUMISTEIN, Genomescience Co.) was added. After reacting for one hour, the alkaline phosphatase activity of the PLAP was measured by detecting the chemical luminescence by a micro plate reader (Perkin-Elmer Co.).
The PLAP activity under usual oxygen was set as 0%, the PLAP activity of cell which was treated under low oxygen was set as 100%, and the concentration suppressing the PLAP activity by 50% was set as the IC50 value of PLAP.

[1] = read-out: IC50 values of VEGF transcription-suppressing activity (range given)

CCC(OS(C)(=O)=O)C(C)C1OC1CC(C)/C=C/C=C(\C)C1OC(=O)CC(O)CCC(C)(O)C(OC(C)=O)/C=C/C1C (centres unmarked) [B16-1, (8E,12E,14E)-7-Acetoxy-3,6-dihydroxy-21-methanesulfonyloxy-6,10,12,16,20-pentamethyl-18,19-epoxytricosa-8,12,14-trien-11-olide]
IC50 [1]: 0.5 to 100 nM

CCC(OS(=O)(=O)c1ccc(C)cc1)C(C)C1OC1CC(C)/C=C/C=C(\C)C1OC(=O)CC(O)CCC(C)(O)C(OC(C)=O)/C=C/C1C (centres unmarked) [B17, (8E,12E,14E)-7-Acetoxy-3,6-dihydroxy-21-(toluene-4-sulfonyloxy)-6,10,12,16,20-pentamethyl-18,19-epoxytricosa-8,12,14-trien-11-olide]
IC50 [1]: 0.5 to 100 nM

CCC(F)C(C)C1OC1CC(C)/C=C/C=C(\C)C1OC(=O)CC(O)CCC(C)(O)C(OC(C)=O)/C=C/C1C (centres unmarked) [B18-1, (8E,12E,14E)-7-Acetoxy-21-fluoro-3,6-dihydroxy-6,10,12,16,20-pentamethyl-18,19-epoxytricosa-8,12,14-trien-11-olide]
IC50 [1]: 0.5 to 100 nM

CCC(OC(C)=O)C(C)C1OC1CC(C)/C=C/C=C(\C)C1OC(=O)CC(O)CCC(C)(O)C(OC(C)=O)/C=C/C1C (centres unmarked) [B20-2, (8E,12E,14E)-7,21-diacetoxy-3,6-dihydroxy-6,10,12,16,20-pentamethyl-18,19-epoxytricosa-8,12,14-trien-11-olide]
IC50 [1]: 0.5 to 100 nM
IC50 (read-out: VEGF transcription suppressing activity (IC50: nM)): 1.6 nM

CCC(OC(C)=O)C(C)C(O)C(Cl)CC(C)/C=C/C=C(\C)C1OC(=O)CC(O)CCC(C)(O)C(OC(C)=O)/C=C/C1C (centres unmarked) [B21-2, (8E,12E,14E)-7,21-diacetoxy-18-chloro-3,6,19-trihydroxy-6,10,12,16,20-pentamethyltricosa-8,12,14-trien-11-olide]
IC50 [1]: 0.5 to 100 nM

CCC(O)C(C)C(OC(C)=O)C(Cl)CC(C)/C=C/C=C(\C)C1OC(=O)CC(OC(C)=O)CCC(C)(O)C(OC(C)=O)/C=C/C1C (centres unmarked) [B21-3, (8E,12E,14E)-3,7,19-triacetoxy-18-chloro-6,21-dihydroxy-6,10,12,16,20-pentamethyltricosa-8,12,14-trien-11-olide]
IC50 [1]: 0.5 to 100 nM

CCC(OC(C)=O)C(C)C(OC(C)=O)C(Cl)CC(C)/C=C/C=C(\C)C1OC(=O)CC(O)CCC(C)(O)C(OC(C)=O)/C=C/C1C (centres unmarked) [B21-4, (8E,12E,14E)-7,19,21-triacetoxy-18-chloro-3,6-dihydroxy-6,10,12,16,20-pentamethyltricosa-8,12,14-trien-11-olide]
IC50 [1]: 0.5 to 100 nM

CCC(OC(C)=O)C(C)C(Br)C(CC(C)/C=C/C=C(\C)C1OC(=O)CC(O)CCC(C)(O)C(OC(C)=O)/C=C/C1C)OC(C)=O (centres unmarked) [B23-1, (8E,12E,14E)-7,18,21-Triacetoxy-19-bromo-3,6-dihydroxy-6,10,12,16,20-pentamethyltricosa-8,12,14-trien-11-olide]
IC50 [1]: 0.5 to 100 nM

CCOCC(=O)OC1CCC(C)(O)C(OC(C)=O)/C=C/C(C)C(/C(C)=C/C=C/C(C)CC2OC2C(C)C(O)CC)OC(=O)C1 (centres unmarked) [B24, (8E,12E,14E)-7-Acetoxy-3-ethoxyacetoxy-6,21-dihydroxy-6,10,12,16,20-pentamethyl-18,19-epoxytricosa-8,12,14-trien-11-olide]
IC50 [1]: 0.5 to 100 nM

CCOCC(=O)OC(CC)C(C)C1OC1CC(C)/C=C/C=C(\C)C1OC(=O)CC(O)CCC(C)(O)C(OC(C)=O)/C=C/C1C (centres unmarked) [B25, (8E,12E,14E)-7-Acetoxy-21-ethoxyacetoxy-3,6-dihydroxy-6,10,12,16,20-pentamethyl-18,19-epoxytricosa-8,12,14-trien-11-olide]
IC50 [1]: 0.5 to 100 nM

CCOCC(=O)OCC(=O)OC1CCC(C)(O)C(OC(C)=O)/C=C/C(C)C(/C(C)=C/C=C/C(C)CC2OC2C(C)C(O)CC)OC(=O)C1 (centres unmarked) [B26]
IC50 [1]: 0.5 to 100 nM

CCC(OC(=O)CO)C(C)C1OC1CC(C)/C=C/C=C(\C)C1OC(=O)CC(O)CCC(C)(O)C(OC(C)=O)/C=C/C1C (centres unmarked) [B27]
IC50 [1]: 0.5 to 100 nM

CCC(OC(=O)CN(C)C)C(C)C1OC1CC(C)/C=C/C=C(\C)C1OC(=O)CC(O)CCC(C)(O)C(OC(C)=O)/C=C/C1C (centres unmarked) [B28, (8E,12E,14E)-7-Acetoxy-3,6-dihydroxy-6,10,12,16,20-pentamethyl-21-dimethylaminoacetoxy-18,19-epoxytricosa-8,12,14-trien-11-olide]
IC50 [1]: 0.5 to 100 nM

CCC(OC(=O)c1cccnc1)C(C)C1OC1CC(C)/C=C/C=C(\C)C1OC(=O)CC(O)CCC(C)(O)C(OC(C)=O)/C=C/C1C (centres unmarked) [B29, (8E,12E,14E)-7-Acetoxy-3-6-dihydroxy-6,10,12,16,20-pentamethyl-21-nicotinoxy-18,19-epoxytricosa-8,12,14-trien-11-olide]
IC50 [1]: 0.5 to 100 nM

CCC(O)C(C)C1OC1CC(C)/C=C/C=C(\C)C1OC(=O)CC(OC(=O)c2ccccc2)CCC(C)(O)C(OC(C)=O)/C=C/C1C (centres unmarked) [B30-2, (8E,12E,14E)-7-acetoxy-3-benzoloxy-6,21-dihydroxy-6,10,12,16,20-pentamethyl-18,19-epoxytricosa-8,12,14-trien-11-olide]
IC50 [1]: 0.5 to 100 nM

CCC(OC(=O)c1ccccc1)C(C)C1OC1CC(C)/C=C/C=C(\C)C1OC(=O)CC(O)CCC(C)(O)C(OC(C)=O)/C=C/C1C (centres unmarked) [B30-3, (8E,12E,14E)-7-acetoxy-21-benzoloxy-3,6-dihydroxy-6,10,12,16,20-pentamethyl-18,19-epoxytricosa-8,12,14-trien-11-olide]
IC50 [1]: 0.5 to 100 nM

CCC(OC(N)=O)C(C)C1OC1CC(C)/C=C/C=C(\C)C1OC(=O)CC(OC(N)=O)CCC(C)(O)C(OC(C)=O)/C=C/C1C (centres unmarked) [B33-1, (8E,12E,14E)-7-Acetoxy-3,21-dicarbamoyloxy-6-hydroxy-6,10,12,16,20-pentamethyl-18,19-epoxytricosa-8,12,14-trien-11-olide]
IC50 [1]: 0.5 to 100 nM

CCC(O)C(C)C1OC1CC(C)/C=C/C=C(\C)C1OC(=O)CC(OC(N)=O)CCC(C)(O)C(OC(C)=O)/C=C/C1C (centres unmarked) [B35-1, (8E,12E,14E)-7-Acetoxy-3-carbamoyloxy-6,21-dihydroxy-6,10,12,16,20-pentamethyl-18,19-epoxytricosa-8,12,14-trien-11-olide]
IC50 [1]: 0.5 to 100 nM

CCC(OC(N)=O)C(C)C1OC1CC(C)/C=C/C=C(\C)C1OC(=O)CC(O)CCC(C)(O)C(OC(C)=O)/C=C/C1C (centres unmarked) [B35-2, (8E,12E,14E)-7-acetoxy-21-carbamoyloxy-3,6-dihydroxy-6,10,12,16,20-pentamethyl-18,19-epoxytricosa-8,12,14-trien-11-olide]
IC50 [1]: 0.5 to 100 nM

CCC(OC(=O)N1CCN(C)CC1)C(C)C1OC1CC(C)/C=C/C=C(\C)C1OC(=O)CC(O)CCC(C)(O)C(OC(C)=O)/C=C/C1C (centres unmarked) [B36-2, (8E,12E,14E)-7-acetoxy-21-((4-methylpiperazin-1-yl)carbonyl)oxy-3,6-dihydroxy-6,10,12,16,20-pentamethyl-18,19-epoxytricosa-8,12,14-trien-11-olide]
IC50 [1]: 0.5 to 100 nM

CCC(O)C(C)C1OC1CC(C)/C=C/C=C(\C)C1OC(=O)CC(OC(=O)N2CCC(N3CCCCC3)CC2)CCC(C)(O)C(OC(C)=O)/C=C/C1C (centres unmarked) [B37-1]
IC50 [1]: 0.5 to 100 nM

CCC(O)C(C)C1OC1CC(C)/C=C/C=C(\C)C1OC(=O)CC(O)CCC(C)(O)C(OC(=O)CCl)/C=C/C1C (centres unmarked) [B39, (8E,12E,14E)-7-Chloroacetoxy-3,6,21-trihydroxy-6,10,12,16,20-pentamethyl-18,19-epoxytricosa-8,12,14-trien-11-olide]
IC50 [1]: 0.5 to 100 nM

CCC(O)C(C)C1OC1CC(C)/C=C/C=C(\C)C1OC(=O)CC(O)CCC(C)(O)C(OC(=O)CN2CCOCC2)/C=C/C1C (centres unmarked) [B40, (8E,12E,14E)-3,6,21-Trihydroxy-6,10,12,16,20-pentamethyl-7-(morpholin-4-yl)acetoxy-18,19-epoxytricosa-8,12,14-trien-11-olide]
IC50 [1]: 0.5 to 100 nM

CCC(O)C(C)C1OC1CC(C)/C=C/C=C(\C)C1OC(=O)CC(O)CCC(C)(O)C(OC(=O)c2ccccc2)/C=C/C1C (centres unmarked) [B41, (8E,12E,14E)-7-Benzoyloxy-3,6,21-trihydroxy-6,10,12,16,20-pentamethyl-18,19-epoxytricosa-8,12,14-trien-11-olide]
IC50 [1]: 0.5 to 100 nM

CCCC(=O)OC1/C=C/C(C)C(/C(C)=C/C=C/C(C)CC2OC2C(C)C(O)CC)OC(=O)CC(O)CCC1(C)O (centres unmarked) [B42]
IC50 [1]: 0.5 to 100 nM
